Source: patent US8962637B2, “Bicyclic compounds and their uses as dual c-SRC/JAK inhibitors” (Debiopharm S.A., priority 2010, dated 2015)

Legend:
[1] = test system: Mda-Mb-231 cells; assay: Cell viability assay (XTT assay), Mda-Mb-231; assay type: cell-based; settings: Homo sapiens, 72 hrs
Description: Mda-Mb-231 or A549 cells were seeded onto a 96-well micro plate. Next day compounds were added to cells and incubated for 72 hrs. Compound treatment was done in triplicates. After 72 hrs cell culture media was aspirated from the wells and XTT working solution was added and plates were incubated for 2-5 hrs. The absorbance of the samples was measured with a spectrophotometer at a wavelength of 465 nm. EC50 values were calculated using Graphpad Prism. Tumor cell lines used in the examples of the present invention were procured from ATCC. Description of the cell lines is included in the following table: […]

[2] = molecular target: JAK2 (Homo sapiens (Human), UniProt O60674); assay: TR-FRET JAK2 kinase assay; assay type: biochemical; settings: ATP 10 μM; for inhibition at 0.1 µM: read-out: JAK2 % inhibition at 100 nM, 100 nM; for inhibition at 1 µM: read-out: JAK2 % inhibition at 1 μM
Description: (§1) Compounds were screened in the TR-FRET assay for JAK2 and c-Src kinase inhibition. Ultra light poly GT (Perkin Elmer) was used as the substrate for JAK2 and c-Src with the ATP concentration of 10 μM and 50 μM, respectively. […] The dose-response curve fitting was done using GraphPad Prism software.

[3] = molecular target: c-Src (Homo sapiens (Human), UniProt P12931); assay: TR-FRET c-Src kinase assay; assay type: biochemical; settings: ATP 50 μM; for inhibition at 0.1 µM: read-out: c-SRC % inhibition at 100 nM, 100 nM; for inhibition at 1 µM: read-out: c-SRC % inhibition at 1 μM
Description: as §1

[4] = test system: pStat3; assay: In-Cell-Western blot assay for pStat3 (ICW) in A431 cells; assay type: cell-based; settings: Homo sapiens, A-431, 2 hrs, read-out: pSTAT3 inhibition
Description: A431 cells were seeded onto a 96-well micro plate. After overnight serum starvation cells were incubated with compounds for 2 hrs. Cells were fixed with 4% paraformaldehyde in PBS and then permeabilized with 0.1% Triton X-100 in PBS (PBST). Cells were blocked with 5% BSA in PBST for 2 hrs, followed by overnight incubation with phospho Stat3 antibody. Cells were washed and incubated with europium-labeled anti-rabbit secondary antibody for 2 hrs. After washing enhancement solution was added to the wells. The micro-plate was read on the Victor instrument at the Europium setting. The Hoechst readings were used to normalize for cell number. IC50 values were calculated with the normalized europium values using Graphpad Prism.

Chain of JAK2 (O60674 whole entry): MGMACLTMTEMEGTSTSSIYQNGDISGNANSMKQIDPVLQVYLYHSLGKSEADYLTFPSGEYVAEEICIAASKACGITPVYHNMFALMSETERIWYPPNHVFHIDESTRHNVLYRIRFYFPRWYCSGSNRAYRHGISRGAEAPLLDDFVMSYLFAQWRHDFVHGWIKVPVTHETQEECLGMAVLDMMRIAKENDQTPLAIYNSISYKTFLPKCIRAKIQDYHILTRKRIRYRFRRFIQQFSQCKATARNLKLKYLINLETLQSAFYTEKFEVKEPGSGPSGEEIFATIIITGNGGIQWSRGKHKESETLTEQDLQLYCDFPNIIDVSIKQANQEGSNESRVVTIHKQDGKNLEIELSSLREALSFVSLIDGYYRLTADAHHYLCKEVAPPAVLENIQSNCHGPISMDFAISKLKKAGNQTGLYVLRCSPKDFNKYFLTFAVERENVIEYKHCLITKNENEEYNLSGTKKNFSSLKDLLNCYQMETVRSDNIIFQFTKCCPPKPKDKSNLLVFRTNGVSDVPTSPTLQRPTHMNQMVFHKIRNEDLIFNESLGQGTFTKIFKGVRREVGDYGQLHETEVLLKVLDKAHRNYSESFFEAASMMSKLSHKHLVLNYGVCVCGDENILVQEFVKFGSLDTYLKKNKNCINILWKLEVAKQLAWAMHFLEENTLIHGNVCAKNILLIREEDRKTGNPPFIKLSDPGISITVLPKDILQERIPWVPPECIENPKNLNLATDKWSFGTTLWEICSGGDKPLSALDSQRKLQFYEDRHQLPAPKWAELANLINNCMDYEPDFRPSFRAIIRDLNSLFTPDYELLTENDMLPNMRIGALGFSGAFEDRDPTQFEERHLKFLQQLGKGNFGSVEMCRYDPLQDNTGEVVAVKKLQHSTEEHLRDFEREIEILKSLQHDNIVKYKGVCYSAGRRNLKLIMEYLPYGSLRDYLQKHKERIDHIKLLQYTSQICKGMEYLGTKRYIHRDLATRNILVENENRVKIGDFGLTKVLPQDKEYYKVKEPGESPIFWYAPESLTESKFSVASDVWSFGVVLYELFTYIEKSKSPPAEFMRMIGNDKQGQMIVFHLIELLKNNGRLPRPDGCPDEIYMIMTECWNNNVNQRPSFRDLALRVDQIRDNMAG
Chain of c-Src (P12931 whole entry, looked up): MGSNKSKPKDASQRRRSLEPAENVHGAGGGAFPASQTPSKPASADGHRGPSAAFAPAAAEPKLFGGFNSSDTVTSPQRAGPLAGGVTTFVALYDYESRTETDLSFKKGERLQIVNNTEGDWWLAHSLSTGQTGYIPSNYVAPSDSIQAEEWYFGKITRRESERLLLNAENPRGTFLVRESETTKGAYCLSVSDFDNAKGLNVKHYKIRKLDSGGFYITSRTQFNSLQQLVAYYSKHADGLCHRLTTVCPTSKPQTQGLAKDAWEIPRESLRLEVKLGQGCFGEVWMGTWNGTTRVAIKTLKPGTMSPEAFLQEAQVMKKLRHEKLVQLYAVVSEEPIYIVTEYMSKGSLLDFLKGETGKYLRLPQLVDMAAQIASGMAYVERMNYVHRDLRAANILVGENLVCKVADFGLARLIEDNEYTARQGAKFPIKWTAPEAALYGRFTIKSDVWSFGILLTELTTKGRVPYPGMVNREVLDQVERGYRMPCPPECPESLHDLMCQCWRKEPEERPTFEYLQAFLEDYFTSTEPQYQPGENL

Row | Compound | EC50 [1] | IC50 [2] | IC50 [3] | inhibition at 0.1 µM [2] | inhibition at 1 µM ([2]; 1 μM) | inhibition at 0.1 µM [3] | inhibition at 1 µM [3] | IC50 [4] | JAK2 % inhibition at 1 μM ([2]; 1 μM)
1 | Cc1ccc(NC(=O)CC2CCCC2)cc1N1CCc2nc(Nc3ccc(OCCN4CCCC4)cc3)ncc2C1 [Compound 108, 2-Cyclopentyl-N-(4-methyl-3-{2-[4-(2-pyrrolidin-1-yl-ethoxy)-phenylamino]-7,8-dihydro-5H-pyrido[4,3-d]pyrimidin-6-yl}-phenyl)-acetamide] | 2600 nM | 12 nM | 1 nM | 89% | 98% | 98% | 100% | – | –
2 | Cc1ccc(NC(=O)c2cccc(C(F)(F)F)c2)cc1N1CCc2nc(Nc3ccc(C(N)=O)nc3)ncc2C1 [Compound 119, 5-{6-[2-Methyl-5-(3-trifluoromethyl-benzoylamino)-phenyl]-5,6,7,8-tetrahydro-pyrido[4,3-d]pyrimidin-2-ylamino)-pyridine-2-carboxylic acid amide] | 380 nM | 8 nM | – | – | – | 95% | 98% | 280 nM | –
3 | Cc1ccc(NC(=O)CC(C)C(F)(F)F)cc1N1CCc2nc(Nc3ccc(N4CCN(C)CC4)cc3)ncc2C1 (centres unmarked) [Compound 123, 4,4,4-Trifluoro-3-methyl-N-(4-methyl-3-{2-[4-(4-methyl-piperazin-1-yl)-phenylamino]-7,8-dihydro-5H-pyrido[4,3-d]pyrimidin-6-yl}-phenyl)-butyramide] | 830 nM | 9 nM | 3 nM | – | – | – | – | 190 nM | –
4 | Cc1ccc(NC(=O)NC2CCCC2)cc1N1CCc2nc(Nc3ccc(OCCN4CCCC4)cc3)ncc2C1 [Compound 153, 1-Cyclopentyl-3-(4-methyl-3-{2-[4-(2-pyrrolidin-1-yl-ethoxy)-phenylamino]-7,8-dihydro-5H-pyrido[4,3-d]pyrimidin-6-yl}-phenyl)-urea] | 610 nM | 4 nM | – | – | – | 98% | 99% | – | –
5 | Cc1ccc(NC(=O)CC(C)C(F)(F)F)cc1N1CCc2nc(Nc3ccc(OCCN4CCN(C)CC4)cc3)ncc2C1 (centres unmarked) [Compound 160, 4,4,4-Trifluoro-3-methyl-N-[4-methyl-3-(2-{4-[2-(4-methyl-piperazin-1-yl)-ethoxy]-phenylamino}-7,8-dihydro-5H-pyrido[4,3-d]pyrimidin-6-yl)-phenyl]-butyramide] | – | 15 nM | 66 nM | – | – | – | – | – | –
6 | Cc1ccc(NC(=O)c2cc(C(F)(F)F)ccn2)cc1N1CCc2nc(Nc3ccc(N4CCN(C)CC4)cc3)ncc2C1=O [Compound 166, 4-Trifluoromethyl-pyridine-2-carboxylic acid (4-methyl-3-{2-[4-(4-methyl-piperazin-1-yl)-phenylamino]-5-oxo-7,8-dihydro-5H-pyrido[4,3-d]pyrimidin-6-yl}-phenyl)-amide] | – | 48 nM | 27 nM | 74% | 93% | 60% | 87% | – | –
7 | CN1CCN(c2ccc(Nc3ncc4c(n3)CCN(c3cc(NC(=O)c5cc(F)cc(C(F)(F)F)c5)ccc3Cl)C4=O)cc2)CC1 [Compound 172, N-(4-Chloro-3-{2-[4-(4-methyl-piperazin-1-yl)-phenylamino]-5-oxo-7,8-dihydro-5H-pyrido[4,3-d]pyrimidin-6-yl]-phenyl)-3-fluoro-5-trifluoromethyl-benzamide] | 1840 nM | – | – | 94% | 97% | 66% | 72% | – | –
8 | Cc1nc(Nc2ncc(C(=O)Nc3c(C)cccc3Cl)s2)cc(N2CCN(CCO)CC2)n1 [Dasatinib, reference compound] | 44 nM | – | – | – | – | – | – | – | 55%

The next lines start with results.

Row | EC50 [1] | IC50 [2] | IC50 [3] | inhibition at 0.1 µM [2] | inhibition at 1 µM ([2]; 1 μM) | inhibition at 0.1 µM [3] | inhibition at 1 µM [3] | IC50 [4] | Compound | JAK2 % inhibition at 1 μM ([2]; 1 μM)
9 | 3820 nM | 44 nM | 19 nM | – | – | – | – | – | Cc1ccc(NC(=O)c2cccc(Br)c2)cc1N1CCc2nc(Nc3ccc(N4CCN(C)CC4)cc3)ncc2C1=O [Compound 58, 3-Bromo-N-(4-methyl-3-{2-[4-(4-methyl-piperazin-1-yl)-phenylamino]-5-oxo-7,8-dihydro-5H-pyrido[4,3-d]pyrimidin-6-yl}-phenyl)-benzamide] | –
10 | 2500 nM | 36 nM | – | – | – | 94% | 95% | – | Cc1ccc(NC(=O)c2cc(Cl)cc(C(F)(F)F)c2)cc1N1CCc2nc(Nc3ccc(N4CCN(C)CC4)cc3)ncc2C1=O [Compound 120, 3-Chloro-N-(4-methyl-3-{2-[4-(4-methyl-piperazin-1-yl)-phenylamino]-5-oxo-7,8-dihydro-5H-pyrido[4,3-d]pyrimidin-6-yl}-phenyl)-5-trifluoromethyl-benzamide] | –
11 | 370 nM | 5 nM | 6 nM | – | – | – | – | 350 nM | Cc1ccc(NC(=O)c2cc(C(F)(F)F)ccn2)cc1N1CCc2nc(Nc3ccc(N4CCN(C)CC4)cc3)ncc2C1 [Compound 146, 4-Trifluoromethyl-pyridine-2-carboxylic acid (4-methyl-3-{2-[4-(4-methyl-piperazin-1-yl)-phenylamino]-7,8-dihydro-5H-pyrido[4,3-d]pyrimidin-6-yl}-phenyl)-amide] | –
12 | 34 nM | – | 2.4 nM | – | – | 99% | 99% | 270 nM | Cc1ccc(NC(=O)c2cccc(C(F)(F)F)c2)cc1N1CCc2nc(Nc3ccc(C(=O)NC4CCN(C)CC4)nc3)ncc2C1 [Compound 148, 5-{6-[2-Methyl-5-(3-trifluoromethyl-benzoylamino)-phenyl]-5,6,7,8-tetrahydro-pyrido[4,3-d]pyrimidin-2-ylamino}-pyridine-2-carboxylic acid (1-methyl-piperidin-4-yl)-amide] | –
13 | – | 46 nM | 26 nM | 68% | 91% | 70% | 79% | – | Cc1ccc(NC(=O)CCC(F)(F)F)cc1N1CCc2nc(Nc3ccc(C(=O)N4CCN(C)CC4)cc3)ncc2C1 [Compound 164, 4,4,4-Trifluoro-N-(4-methyl-3-{2-[4-(4-methyl-piperazine-1-carbonyl)-phenylamino]-7,8-dihydro-5H-pyrido[4,3-d]pyrimidin-6-yl}-phenyl)-butyramide] | –
14 | – | 5.3 nM | 27 nM | 95% | 97% | 97% | 98% | 283 nM | Cc1ccc(NC(=O)c2cc(C(F)(F)F)ccn2)cc1N1CCc2nc(Nc3ccc(C(=O)N4CCN(C)CC4)cc3)ncc2C1 [Compound 167, 4-Trifluoromethyl-pyridine-2-carboxylic acid (4-methyl-3-{2-[4-(4-methyl-piperazine-1-carbonyl)-phenylamino]-7,8-dihydro-5H-pyrido[4,3-d]pyrimidin-6-yl}-phenyl)-amide] | –
15 | – | 70 nM | – | 64% | 93% | 26% | 58% | – | Cc1ccc(NC(=O)c2cc(C(F)(F)F)ccn2)cc1N1CCc2nc(Nc3ccc(C(=O)N4CCN(C)CC4)cc3)ncc2C1=O [Compound 170, 4-Trifluoromethyl-pyridine-2-carboxylic acid (4-methyl-3-{2-[4-(4-methyl-piperazine-1-carbonyl)-phenylamino]-5-oxo-7,8-dihydro-5H-pyrido[4,3-d]pyrimidin-6-yl}-phenyl)-amide] | –
16 | – | – | – | 94% | 97% | 95% | 98% | 161 nM | CN1CCN(c2ccc(Nc3ncc4c(n3)CCN(c3cc(NC(=O)c5cccc(C(F)(F)F)c5)ccc3Cl)C4)cc2)CC1 [Compound 174, N-(4-Chloro-3-{2-[4-(4-methyl-piperazin-1-yl)-phenylamino]-7,8-dihydro-5H-pyrido[4,3-d]pyrimidin-6-yl}-phenyl)-3-trifluoromethyl-benzamide] | –
17 | 330 nM | 15 nM | 13 nM | 89% | 94% | 87% | 96% | – | CNC(=O)c1ccc(Nc2ncc3c(n2)CCN(c2cc(NC(=O)c4cccc(C(F)(F)F)c4)ccc2Cl)C3)cc1 [Compound 176, N-{4-Chloro-3-[2-(4-methylcarbamoyl-phenylamino)-7,8-dihydro-5H-pyrido[4,3-d]pyrimidin-6-yl]-phenyl}- -5-trifluoromethyl-benzamide] | –
18 | 120 nM | – | 20 nM | – | – | 86% | 96% | 290 nM | CNC(=O)c1ccc(Nc2ncc3c(n2)CCN(c2cc(NC(=O)c4cc(F)cc(C(F)(F)F)c4)ccc2Cl)C3)cc1 [Compound 177, N-{4-Chloro-3-[2-(4-methylcarbamoyl-phenylamino)-7,8-dihydro-5H-pyrido[4,3-d]pyrimidin-6-yl]-phenyl}-3-fluoro-5-trifluoromethyl-benzamide] | –
